# Laboratory results as given in paper PMC4033217, “Characterization of Novel PI3Kδ Inhibitors as Potential Therapeutics for SLE and Lupus Nephritis in Pre-Clinical Studies” (Frontiers in Immunology, 2014).
# “Also recorded” adds a separate entry of the source. Like-named read-outs stand apart in the source and are kept apart here.
# What was measured:
# [1] = system: CD69 on B220+ B cells, mouse whole blood; assay: Anti-IgD-induced CD69 in mouse whole blood (in vitro); format: cell-based; conditions: B-cell
# Procedure: Whole blood withdrawn from naïve C57BL/6N mice (Charles River Laboratories, L’Arbresle, France) were incubated with PI3Kδ inhibitors for 30 min and stimulated with 1/12 goat anti-mouse IgD antiserum (eBioscience, San Diego, CA, USA) for 4 h before staining with anti-B220-PerCP-Cy5.5 and anti-CD69-PE (all BD Biosciences Pharmingen, San Diego, CA, USA) for 30 min at room temperature. After red blood cells lysis, B220^+IgD^+ cells were gated for CD69 analysis.
# CD19+ B cells = assay: B cell cytokine release assay (anti-Ig, CpG ODN 2006, IFNα); format: cell-based; conditions: Homo sapiens, 48 h
# Procedure: Cytokines in the supernatants were measured with Cytometric Bead Array kits (BD Biosciences Pharmingen, San Diego, CA, USA).
# PI3K α = PI3K α (Homo sapiens, UniProt P42336); assay: Scintillation proximity assay, PI3Kα enzymatic activity; format: biochemical; conditions: 65 μM ATP, read-out: Enzymatic potency IC50
# PI3K β = PI3K β (Homo sapiens, UniProt P42338); assay: Scintillation proximity assay, PI3Kβ enzymatic activity; format: biochemical; conditions: 65 μM ATP, read-out: Enzymatic potency IC50
# PI3K γ = PI3K γ (Homo sapiens, UniProt P48736); assay: Scintillation proximity assay, PI3Kγ enzymatic activity; format: biochemical; conditions: 65 μM ATP, read-out: Enzymatic potency IC50
# pAkt and CD69 in B cells = assay: Ex vivo mouse whole blood assays (pAkt, CD69) after oral dosing; format: in vivo; conditions: for ED50: Mus musculus, B-cell, naïve C57BL/6N mice, read-out: ED50 inhibition of pAkt and CD69
# Procedure: PI3Kδ inhibitors were administered to naïve C57BL/6N mice (Charles River Laboratories, L’Arbresle, France), by gavage at indicated time points before heparinized whole blood was obtained and divided into two aliquots. One aliquot was incubated with anti-IgD as stimulation and another PBS as basal control. pAkt in B cells or CD69 up-regulation on B cell surface of each sample was measured as described for the in vitro assays. The difference between stimulated and basal levels of mean fluorescence intensity (MFI) was calculated as Δ value.
# NZB/W F1 mice = assay: IFNα-accelerated NZB/W F1 mouse SLE model; format: in vivo
# Procedure: All protocols and procedures were conducted according to German animal protection law (Tierschutzgesetz) and were approved by the local veterinarian authorities (Regierungspräsidium, Darmstadt, Germany). Ten-week-old female NZB/W F1 mice (Jackson Laboratories, Bar Harbor, ME, USA) were given a single i.v. injection of 1 × 10^8 IU/100 μl of AdV-IFN-α (adenovirus with mmIfna5_v1 insert, Biofocus, CoA.NL.09.160) in saline or left untreated (sham). Drug treatments were either initiated at 2 weeks (early intervention regimen) or 4 weeks (late intervention regimen) post AdV-IFN-α delivery until the end of the experiment (at 10 weeks). […] Serum and urine samples were collected for anti-dsDNA antibodies (by ELISA) and urinary protein creatinine ratio (UPCR) (measured by ADVIA 1800) determination, respectively, on the days indicated. Proteinuria is defined as UPCR >3.
# [2] = system: CD69 on CD19+ B cells, human whole blood; assay: Anti-IgM-induced CD69 in human whole blood; format: cell-based; conditions: B-cell, healthy donors, 18 h, read-out: IC50 anti-IgM-induced CD69 up-regulation
# From the text: After red blood cells lysis, CD19^+ cells were gated for CD69 analysis.
# [3] = Intrinsic clearance in mouse liver microsomes; format: in vitro ADME; conditions: read-out: In vitro Clint
# From the text: 36 CLint: intrinsic clearance in liver microsomes. h/m: human/mouse. Papp: apparent permeability. uPPB:
# 37 unbound plasma protein binding. […]
# Chain of PI3K β (P42338 whole entry): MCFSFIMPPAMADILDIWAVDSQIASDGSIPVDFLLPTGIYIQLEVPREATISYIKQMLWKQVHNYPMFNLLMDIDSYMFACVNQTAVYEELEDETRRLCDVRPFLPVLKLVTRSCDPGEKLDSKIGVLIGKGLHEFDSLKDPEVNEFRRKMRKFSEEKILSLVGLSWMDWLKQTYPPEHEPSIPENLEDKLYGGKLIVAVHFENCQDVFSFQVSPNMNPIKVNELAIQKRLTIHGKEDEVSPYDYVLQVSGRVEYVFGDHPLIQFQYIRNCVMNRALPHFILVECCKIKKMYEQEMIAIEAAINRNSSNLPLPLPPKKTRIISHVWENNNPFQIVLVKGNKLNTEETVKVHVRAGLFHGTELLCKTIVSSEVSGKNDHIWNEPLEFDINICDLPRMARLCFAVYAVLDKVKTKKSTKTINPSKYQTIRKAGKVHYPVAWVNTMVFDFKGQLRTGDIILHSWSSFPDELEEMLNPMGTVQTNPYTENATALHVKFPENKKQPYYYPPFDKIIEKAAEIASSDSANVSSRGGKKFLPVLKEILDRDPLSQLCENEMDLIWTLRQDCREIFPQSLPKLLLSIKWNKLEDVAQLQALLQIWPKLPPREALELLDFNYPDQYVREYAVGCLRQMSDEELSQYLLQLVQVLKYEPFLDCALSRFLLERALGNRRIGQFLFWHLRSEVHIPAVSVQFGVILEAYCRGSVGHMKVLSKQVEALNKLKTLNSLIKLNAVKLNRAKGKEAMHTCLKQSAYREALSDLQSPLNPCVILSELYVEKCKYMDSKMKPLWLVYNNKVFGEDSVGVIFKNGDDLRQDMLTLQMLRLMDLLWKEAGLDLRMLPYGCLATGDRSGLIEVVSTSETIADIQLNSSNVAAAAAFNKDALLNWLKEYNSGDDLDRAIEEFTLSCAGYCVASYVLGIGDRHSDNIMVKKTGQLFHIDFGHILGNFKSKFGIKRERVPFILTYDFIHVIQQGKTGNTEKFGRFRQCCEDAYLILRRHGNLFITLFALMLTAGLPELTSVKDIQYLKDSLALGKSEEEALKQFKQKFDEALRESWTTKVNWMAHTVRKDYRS
# Chain of PI3K β (P27986 whole entry partner): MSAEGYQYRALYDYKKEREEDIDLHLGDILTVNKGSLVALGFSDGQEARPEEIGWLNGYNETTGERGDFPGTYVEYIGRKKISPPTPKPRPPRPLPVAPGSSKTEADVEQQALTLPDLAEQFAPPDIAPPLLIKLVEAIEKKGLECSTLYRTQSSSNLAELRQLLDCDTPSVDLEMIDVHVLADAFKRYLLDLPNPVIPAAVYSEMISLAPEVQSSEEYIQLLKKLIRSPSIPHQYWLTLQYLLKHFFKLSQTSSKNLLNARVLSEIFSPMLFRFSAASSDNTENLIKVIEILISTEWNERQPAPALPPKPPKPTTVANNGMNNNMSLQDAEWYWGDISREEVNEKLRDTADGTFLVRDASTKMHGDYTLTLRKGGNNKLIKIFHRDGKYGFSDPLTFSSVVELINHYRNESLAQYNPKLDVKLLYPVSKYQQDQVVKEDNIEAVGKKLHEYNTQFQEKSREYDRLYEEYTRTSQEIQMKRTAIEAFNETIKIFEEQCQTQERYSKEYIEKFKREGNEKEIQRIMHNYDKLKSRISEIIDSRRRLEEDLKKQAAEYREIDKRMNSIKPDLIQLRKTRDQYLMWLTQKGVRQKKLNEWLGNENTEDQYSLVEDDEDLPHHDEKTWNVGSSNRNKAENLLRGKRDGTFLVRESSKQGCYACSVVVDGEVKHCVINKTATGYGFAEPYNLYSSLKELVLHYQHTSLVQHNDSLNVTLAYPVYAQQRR
# Chain of PI3K γ (P48736 whole entry): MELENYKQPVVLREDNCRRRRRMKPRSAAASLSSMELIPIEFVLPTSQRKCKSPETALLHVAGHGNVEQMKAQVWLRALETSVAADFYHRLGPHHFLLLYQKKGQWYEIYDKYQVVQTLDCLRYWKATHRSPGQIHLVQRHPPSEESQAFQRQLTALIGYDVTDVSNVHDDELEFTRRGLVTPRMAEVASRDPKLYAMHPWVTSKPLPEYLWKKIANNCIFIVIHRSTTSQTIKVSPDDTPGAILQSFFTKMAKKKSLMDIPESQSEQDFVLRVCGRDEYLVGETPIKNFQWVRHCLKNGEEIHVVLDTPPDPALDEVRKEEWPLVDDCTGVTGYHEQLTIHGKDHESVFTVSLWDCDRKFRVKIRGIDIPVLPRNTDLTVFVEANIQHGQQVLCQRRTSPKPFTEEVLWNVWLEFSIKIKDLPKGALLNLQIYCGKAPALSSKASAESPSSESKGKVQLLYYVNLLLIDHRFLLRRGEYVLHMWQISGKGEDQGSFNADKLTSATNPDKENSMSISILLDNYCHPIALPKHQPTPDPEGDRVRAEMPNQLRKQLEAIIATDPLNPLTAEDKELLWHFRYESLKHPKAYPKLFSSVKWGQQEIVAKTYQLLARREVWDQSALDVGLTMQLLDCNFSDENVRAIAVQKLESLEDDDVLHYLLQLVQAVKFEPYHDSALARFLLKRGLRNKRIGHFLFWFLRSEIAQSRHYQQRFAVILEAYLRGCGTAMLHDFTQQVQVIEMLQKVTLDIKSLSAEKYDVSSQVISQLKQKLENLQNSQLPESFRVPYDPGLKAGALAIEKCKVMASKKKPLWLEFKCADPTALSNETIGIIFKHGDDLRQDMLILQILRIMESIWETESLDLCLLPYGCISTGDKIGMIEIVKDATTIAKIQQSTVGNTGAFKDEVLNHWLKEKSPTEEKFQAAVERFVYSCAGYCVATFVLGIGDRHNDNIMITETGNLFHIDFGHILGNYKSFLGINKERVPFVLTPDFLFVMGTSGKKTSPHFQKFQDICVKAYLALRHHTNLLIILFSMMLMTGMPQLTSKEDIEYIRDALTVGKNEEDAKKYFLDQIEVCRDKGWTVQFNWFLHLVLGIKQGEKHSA
# Chain of PI3K α (P42336 whole entry): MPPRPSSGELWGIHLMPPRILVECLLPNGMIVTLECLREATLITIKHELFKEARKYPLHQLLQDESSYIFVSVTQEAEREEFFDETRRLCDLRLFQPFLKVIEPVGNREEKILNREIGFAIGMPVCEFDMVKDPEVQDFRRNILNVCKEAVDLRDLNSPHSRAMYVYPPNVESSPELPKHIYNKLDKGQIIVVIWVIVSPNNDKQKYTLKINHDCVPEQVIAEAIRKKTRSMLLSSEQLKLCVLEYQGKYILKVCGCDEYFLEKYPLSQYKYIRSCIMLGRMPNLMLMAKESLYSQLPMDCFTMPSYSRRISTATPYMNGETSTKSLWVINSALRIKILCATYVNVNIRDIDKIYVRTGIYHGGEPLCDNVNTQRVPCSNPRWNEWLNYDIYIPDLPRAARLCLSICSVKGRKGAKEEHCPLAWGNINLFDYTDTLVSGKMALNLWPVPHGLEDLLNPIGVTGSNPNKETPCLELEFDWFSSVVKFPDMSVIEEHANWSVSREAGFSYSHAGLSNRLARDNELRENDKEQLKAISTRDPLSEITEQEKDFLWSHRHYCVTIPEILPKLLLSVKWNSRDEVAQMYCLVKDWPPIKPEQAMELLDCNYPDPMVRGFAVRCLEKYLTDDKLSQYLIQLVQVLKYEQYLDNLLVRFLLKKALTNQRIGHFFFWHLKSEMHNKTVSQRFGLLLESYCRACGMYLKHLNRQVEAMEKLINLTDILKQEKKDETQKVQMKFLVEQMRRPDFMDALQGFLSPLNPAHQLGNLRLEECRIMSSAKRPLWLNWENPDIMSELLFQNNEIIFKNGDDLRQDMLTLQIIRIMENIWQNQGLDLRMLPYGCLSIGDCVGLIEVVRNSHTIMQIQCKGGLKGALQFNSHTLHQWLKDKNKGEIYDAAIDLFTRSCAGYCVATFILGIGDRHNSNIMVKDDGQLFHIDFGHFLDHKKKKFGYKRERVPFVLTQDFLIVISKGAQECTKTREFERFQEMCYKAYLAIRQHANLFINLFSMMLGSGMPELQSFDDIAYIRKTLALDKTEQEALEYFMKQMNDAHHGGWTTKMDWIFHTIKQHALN
# Chain of PI3K α (P27986 whole entry partner): as the sequence (P27986 whole entry partner) above
structure (smiles),measurement,setting,value
"O=C(c1nn([C@@H]2CCCN(CCN3CCOCC3)C2)c2c1CS(=O)(=O)c1cc(F)ccc1-2)N1CCOCC1 [MSC2364588, (R)-7-fluoro-3-(morpholin-4-ylcarbonyl)-1-[1-(2-morpholin-4-ylethyl)piperidin-3-yl]-1,4-dihydrothiochro-meno[4,3-c]pyrazole 5,5-dioxide]",IC50,"[1]; average, read-out: average IC50 for CD69",16 nM
same,IC50,"[1]; representative experiment of Figure 5B, read-out: IC50 CD69",18 nM
same,IC50,CD19+ B cells; read-out: IC50 IL-6,9 nM
same,IC50,CD19+ B cells; read-out: IC50 IL-10,10 nM
same,IC50,CD19+ B cells; read-out: IC50 TNF-α,18 nM
same,IC50,PI3K α,7650 nM
same,IC50,PI3K β,2450 nM
same,IC50,PI3K γ,> 20000 nM
same,Effect on pAkt and CD69,pAkt and CD69 in B cells; 6 h post administration,almost no effect
same,ED50,pAkt and CD69 in B cells; 1 h time point,3 mg/kg
same,ED50,pAkt and CD69 in B cells; 2 h,~10 mg/kg
same,Proteinuria progression / disease severity,"NZB/W F1 mice; half daily dose given twice daily, early intervention",reduces disease severity; also recorded: Equivalent results
same,Drug-related body weight loss,"NZB/W F1 mice; throughout the studies, data not shown",no drug-related body weight loss
same,IC50,[2],21 nM
same,microsomal CLint,[3],35 µL/min/mg
